{"source": "patent US20230134843A1", "about": "“TREATMENT OF STEM CELL DEFICIENCY” (OSPEDALE SAN RAFFAELE S.R.L., priority 2020, published 2023)", "tested_on": "conjunctival cells", "experiment": "Conjunctival and corneal epithelial cell identification (CK8, CK19, CK12 immunofluorescence), stem cell deficiency model", "format": "in vivo, mice", "conditions": "Fosaprepitant 1 mg/mL (FOSA 1)", "from_the_text": "Eight-week-old male mice C57BL6/N (Charles River, Calco, Italy) (WT mice, n=18) and Tac1-deficient B6.Cg-Tac1tm1Bbm/J (Jackson Laboratories, Bar Harbor, Me., USA) (TAC1-KO mice, n=18) were used in all experiments. TAC1-KO mice are homozygous null for the Tac1 gene. […] The corneal thickness and transparency as well as the corneal nerve length are similar to C57BL/6 mice [Barbariga M, Rabiolo A, Fonteyne P, Bignami F, Rama P, Ferrari G. The effect of aging on nerve morphology and substance P expression in mouse and human corneas. Investig Ophthalmol Vis Sci 2018; 59:5329-35. https://doi.org/10.1167/iovs.18-24707.]. Each animal was anesthetized with an intraperitoneal injection of tribromoethanol (250 mg/kg) and a topical anesthetic was applied to their ocular surface prior to the surgical procedure. Total disepithelization was performed based on the model previously described [Amirjamshidi H, Milani B Y, Sagha H M, Movahedan A, Shafiq M A, Lavker R M, et al. Limbal fibroblast conditioned media: A non-invasive treatment for limbal stem cell deficiency. Mol Vis 2011; 17:658], using a blunt spatula to scrap the entire corneal epithelium, including the limbus. Then, fluorescein staining was used to confirm complete removal of the corneal epithelium under the blue light of a slit-lamp microscope. After wounding, eyes were treated with ophthalmic moxifloxacin 1 time/day for 1 week to […]. Fourteen days after disepithelization mice were euthanized using carbon dioxide inhalation and subsequent cervical dislocation. Corneas were collected for immunostaining and western blot analysis. […]\nThe presence of conjunctival epithelial cells was evaluated by immunofluorescence. […] A negative control using only the secondary antibody was used to establish a fluorescence threshold. Then, the fluorescent intensity was quantified in terms of the percentage of positive area (% area) in the epithelium.", "note": "Entries after “also recorded” stand apart in the source; their conditions may differ.", "data": [{"smiles": "C[C@@H](O[C@H]1OCCN(Cc2nc(=O)n(P(=O)(O)O)[nH]2)[C@H]1c1ccc(F)cc1)c1cc(C(F)(F)F)cc(C(F)(F)F)c1", "note": "[Fosaprepitant, [3-{[(2R,3S)-2-[(1R)-1-[3,5-bis(trifluoromethyl)phenyl]ethoxy]-3-(4-fluorophenyl)morpholin-4-yl]methyl}-5-oxo-2H-1,2,4-triazol-1-yl]phosphonic acid]", "values": [{"measurement": "CK12 expression in the corneal epithelium compared to WT", "setting": "p<0.001", "result": "increase"}, {"measurement": "CK8 conjunctival cells infiltrating the cornea compared to WT", "setting": "p<0.01", "result": "Reduced number; also recorded: reduction"}, {"measurement": "CK19 conjunctival cells compared to WT", "setting": "p<0.05", "result": "significant decrease; also recorded: reduction"}]}]}
